# Source: article PMC10266261, “A High-Throughput Approach to Identify Specific Neurotoxicants / Developmental Toxicants in Human Neuronal Cell Function Assays” (ALTEX, 2018)
# Read-outs that look alike come from different tables or passages of the source.
# Assays:
# [1] = system: cardiomyocytes; conditions: specific = cardio-physiologic parameters affected after 30 min at three-fold lower concentration than viability and no effect on viability after 24 h; ref Sirenko et al., 2017; cited from earlier work
# [2] = system: immature human dorsal root ganglia neurons; test: cells; format: cell-based; conditions: for classification in the PeriTox screen: three independent screen runs, up to 20 μM
# Procedure: The PeriTox test (= UKN5) is based on cells differentiated from the H9 human embryonic stem cell (hESC) line (WA09 line), which was obtained from WiCell (Madison, WI, USA). The import of cells and the experiments were authorized under license no. 170–79-1–4-27 (Robert Koch Institute, Berlin, Germany).
# After one hour, 25 μl PDM with 4x concentrated serial dilutions of the test compounds was added to the cells. At 23 h after treatment, the cells were stained with SM and incubated for one additional hour at 37°C.
# (§1) Image acquisition was performed with an ArrayScan VTI HCS (high content imaging) microscope (Cellomics, Waltham, MA, USA).
# After automated imaging, an algorithm was applied that identified the neuronal somata (based on identified nuclei) and subtracted the somatic area from the total neuronal area to obtain the neurite area (NA), i.e., the number of pixels per field covered by neurites. […] Viability (V) was expressed as percentage of live cells relative to control.
# (§2) Neurite area (NA) and viability (V) were always expressed as percentage of the DMSO control. In a first step, matched technical replicates were averaged. […] Curve fitting was performed employing a 4-parameter log-logistic function with least squares fit. The upper asymptote of the fit was forced to 100%, the lower asymptote was variable. The variation of DMSO controls was calculated from pooled values of DMSO controls over several experiments.
# For calculation of the benchmark concentration values (BMC), a benchmark response (BMR) of three standard deviations of DMSO solvent controls of all assay plates (= “3 x noise level”) was used. […] To identify specific effects on neurite outgrowth, the EC50 ratio of EC50(viability)/EC50(neurite area) was calculated.
# This method uses human immature dorsal root ganglia neurons (iDRG) that are produced from pluripotent stem cells that are still in a phase of neurite growth. Like in the NeuriTox assay, exposure to toxicants in this test is for 24 h, and readouts for viability (V) and neurite area (NA) are also conducted in a similar way (Fig. 7A).
# [3] = system: LUHMES cells; test: cells; format: cell-based, human; conditions: for classification / outcome after hit confirmation or re-testing (EC50 prediction model): EC50 ratio V/NA ≥ 4 specific, < 4 cytotoxic; for EC50: Homo sapiens; for LOAEL for neurite area (lowest tested concentration with significant reduction) / classification in the NeuriTox screen: screen; for classification in the NeuriTox screen: hit = NA decreased at concentrations not affecting viability
# Procedure: For the NeuriTox test (= UKN4), LUHMES (Lund human mesencephalic) cells were characterized and cultured as described in detail earlier ([Krug et al., 2013]; [Lotharius et al., 2005]; [Scholz et al., 2011]). Briefly, cells were maintained in proliferation medium (PM: AdvDMEM/F12 supplemented with 2 mM glutamine, 1x N2 supplement and 40 ng/ml fibroblast growth factor-2) in PLO/fibronectin coated flasks (50 μg/ml poly-L-ornithine (PLO) and 1 μg/ml fibronectin). For differentiation, cells were seeded at a density of 46,000 cells/cm^2 in PM. After 24 h, they were switched to differentiation medium (DM) containing AdvDMEM/F12 supplemented with 2 mM glutamine, 1x N2 supplement, 2.25 μM tetracycline, 1 mM dibutyryl 3’,5’-cyclic adenosine monophosphate (cAMP), and 2 ng/ml recombinant human glial cell derived neurotrophic factor (GDNF).
# For the NeuriTox test, LUHMES cells were differentiated for 48 h and seeded into 96 well plates at a density of 100,000 cells/cm^2 in a volume of 90 μl DM without cAMP and GDNF. Treatment was initiated applying 10 μl of a 10x concentrated treatment solution one hour after seeding. At 24 h after treatment, staining mix (SM) was applied (final concentrations: 1 μg/ml H-33342, 1 μM calcein-AM).
# as §1
# The procedure was applied as detailed earlier ([Hoelting et al., 2016]; [Stiegler et al., 2011]). After automated imaging, an algorithm was applied that identified the neuronal somata (based on identified nuclei) and subtracted the somatic area from the total neuronal area to obtain the neurite area (NA), i.e., the number of pixels per field covered by neurites. Viability analysis was performed on the same pictures using combined information from H-33342 and calcein channels. Cells with normal-sized nuclei that were calcein-positive were counted as live cells, whereas H-33342 single-positive cells were counted as dead cells. Viability (V) was expressed as percentage of live cells relative to control.
# as §2
# For calculation of the benchmark concentration values (BMC), a benchmark response (BMR) of three standard deviations of DMSO solvent controls of all assay plates (= “3 x noise level”) was used. […] To identify specific effects on neurite outgrowth, the EC50 ratio of EC50(viability)/EC50(neurite area) was calculated. The NeuriTox test system has a specificity threshold ratio of 4, the PeriTox test system has one of 3 ([Hoelting et al., 2016]; [Krug et al., 2013]).
# If V was not affected at the highest tested concentration (HTC), then 4 x HTC was used as surrogate EC50(V) (marked with ♦; for EC25 calculation, the HTC was doubled in this case) ([Krug et al., 2013]).
# For the actual screening procedure, a defined workflow was established that contained several pre-determined decision points. All compounds were tested at 1:1000 dilutions of their stock concentration, and at subsequent 3-fold dilution levels. For most compounds, the stock was 20 mM, so that the test concentrations were 20 μM, 6.7 μM, 2.2 μM, 0.7 μM, 0.25 μM, 82 nM, 27 nM, 9 nM, 3 nM, and 1 nM. For 2,2’,4,4’,5,5’-hexabromodiphenyl-ether, chrysene, dibenz(a,h)anthracene, bis(tributyltin) oxide, benzo[g,h,i]perylene, and 2,3,7,8-tetrachlorodibenzo-p-dioxin lower stock concentrations were used.
# [4] = hit confirmation / re-testing, adjusted concentration range, 24 h, read-out: EC50(NA), neurite area
# [5] = Homo sapiens, Neuron, hit confirmation, 24 h, read-out: EC50(NA), neurite area
# [6] = Homo sapiens, Neuron, hit confirmation, V not affected at HTC: 4 x HTC used as surrogate, read-out: EC50(V), viability, surrogate marked ♦
smiles,measurement,setting,value
Cl.NCCc1cc(O)c(O)cc1O [6-Hydroxydopamine hydrochloride],classification in the cardiotoxicity test method,[1],specific
C=CC(N)=O [Acrylamide],classification / outcome after hit confirmation (EC50 ratio viability/neurite area ≥ 3),[2],specific PeriTox hit
same,ratio EC50(V)/EC50(NA),"[2]; hit confirmation, ≥ 3 = specific hit",3.2
same,EC50,"[2]; tested at high concentration, 24 h, read-out: EC50(NA), neurite area",2300 µM
"CC(C)(c1ccc(O)cc1)c1ccc(O)cc1 [BPA, bisphenol A]",classification / outcome after hit confirmation or re-testing (EC50 prediction model),[3],no effect up to 100 μM
COc1ccc2cc3[n+](cc2c1OC)CCc1cc2c(cc1-3)OCO2 [Berberine chloride],classification in the cardiotoxicity test method,[1],generally cytotoxic
same,EC50,[3]; [4],23.9 µM
same,EC50,"[3]; hit confirmation, adjusted concentration range, 24 h, read-out: EC50(V), viability",126 µM
same,LOAEL for neurite area (lowest tested concentration with significant reduction),[3]; 24 h,20 µM
same,classification in the NeuriTox screen,"[3]; up to 20 μM, 24 h",active hit compounds
same,EC50,[2]; [5],11.6 µM
same,EC50,[2]; [6],165 µM
same,classification in the PeriTox screen,[2],active hit compounds
O=C1C2CC=CCC2C(=O)N1SC(Cl)(Cl)Cl (centres unmarked) [Captan],classification / outcome after hit confirmation or re-testing (EC50 prediction model),[3],cytotoxicant with relatively low potency
CNC(=O)Oc1cccc2ccccc12 [Carbaryl],classification in the cardiotoxicity test method,[1],specific
same,EC50,"[3]; 24 h, read-out: EC50(NA), neurite area",31 µM
same,EC50,"[3]; 24 h, read-out: EC50(V), viability",130 µM
same,LOAEL for neurite area (lowest tested concentration with significant reduction),[3]; 24 h,20 µM
same,classification in the NeuriTox screen,"[3]; up to 20 μM, 24 h",active hit compounds
same,classification in the PeriTox screen,[2],active hit compounds
COc1cc2c(c(OC)c1OC)-c1ccc(OC)c(=O)cc1[C@@H](NC(C)=O)CC2 [Colchicine],LOAEL for neurite area (lowest tested concentration with significant reduction),[3]; 24 h,0.027 µM
same,classification in the NeuriTox screen,"[3]; up to 20 μM, 24 h",active hit compounds
same,classification in the PeriTox screen,[2],active hit compounds
CC/C(=C(/CC)c1ccc(O)cc1)c1ccc(O)cc1 [Diethylstilbestrol],classification in the NeuriTox screen,"[3]; up to 20 μM, 24 h",active hit compounds
same,classification in the PeriTox screen,[2],active hit compounds
Oc1c(Cl)cc(Cl)c(Cl)c1Cc1c(O)c(Cl)cc(Cl)c1Cl [Hexachlorophene],classification in the NeuriTox screen,"[3]; up to 20 μM, 24 h",cytotoxic
CCCCNC(=O)OCC#CI [Iodocarb],EC50,"[3]; screen data, 24 h exposure, up to 20 μM, read-out: EC50(NA), neurite area",0.9 µM
same,EC50,"[3]; screen data, 24 h exposure, up to 20 μM, read-out: EC50(V), viability",1.2 µM
same,ratio EC50(V)/EC50(NA),"[3]; screen data, specificity threshold 4",1.3
same,EC50,[2]; [5],7.8 µM
same,EC50,[2]; [6],66 µM
same,classification in the PeriTox screen,[2],active hit compounds
"C[n+]1ccc(-c2ccccc2)cc1.[I-] [MPP^+, 1-methyl-4-phenylpyridinium iodide]",EC50,[3]; [4],80 µM
same,classification in the NeuriTox screen,"[3]; up to 20 μM, 24 h",active hit compounds
same,classification / outcome after hit confirmation (EC50 ratio viability/neurite area ≥ 3),[2],not active at all
